# Source: patent US7838674B2, “Tetracyclic lactame derivatives” (Novartis AG, priority 2007, dated 2010)
# Where a name gives a salt, the structure may show the parent alone.
# Columns and labels:
# [1] = system: TNF-α release from hPBMCs; assay: Assay for inhibition of TNF-α release from hPBMCs (IFNγ/LPS stimulated); assay type: cell-based; conditions: Homo sapiens, IFNγ (10 ng/ml) and LPS (5 μg/ml), 3 h
# Procedure: Assay for Inhibition of TNF-α Release from hPBMCs
# Human peripheral blood mononuclear cells (hPBMCs) are prepared from the peripheral blood of healthy volunteers using Ficoll-Plaque Plus (Amersham) density separation according to the method described within. Cells are seeded at a 1×10^5 cells/well in 96-well plates in RPMI 1640 medium (Invitrogen) containing 10% (v/v) fetal calf serum (FCS). Cells are pre-incubated with serial dilutions of test compound (0.25% v/v DMSO final) for 30 min at 37° C. Cells are stimulated with the addition of IFNγ (10 ng/ml) and lipopolysaccharide(LPS) (5 μg/ml) per well and incubated for 3 h at 37° C. Following a brief centrifugation (250×g for 2 min), supernatant (10 μl) samples are taken from each well and measured against a TNFα calibration curve using a HTRF TNFα kit (CisBio) as described within.
# Using the TNF-α release assay described above, compounds of the formula I can be shown to have the following inhibition values: […]
# [2] = target: T1, MAPKAPK2 enzyme (HIS-MK2, Invitrogen PV4019) (Homo sapiens, UniProt P49137); assay: Alternative MAPKAPK2 assay (Caliper microfluidic mobility shift, HSP27-peptide); assay type: biochemical; conditions: HIS-MK2 0.013 nM, ATP 10 μM, 60 min at 30° C.
# T1 construct: His; purchased Invitrogen PV4019
# human MK2 = human MK2 (Homo sapiens, UniProt P49137); assay: MAPKAPK2 kinase assay (TR-FRET, Hsp27 peptide substrate)
# human MK2, sequence (P49137 whole entry): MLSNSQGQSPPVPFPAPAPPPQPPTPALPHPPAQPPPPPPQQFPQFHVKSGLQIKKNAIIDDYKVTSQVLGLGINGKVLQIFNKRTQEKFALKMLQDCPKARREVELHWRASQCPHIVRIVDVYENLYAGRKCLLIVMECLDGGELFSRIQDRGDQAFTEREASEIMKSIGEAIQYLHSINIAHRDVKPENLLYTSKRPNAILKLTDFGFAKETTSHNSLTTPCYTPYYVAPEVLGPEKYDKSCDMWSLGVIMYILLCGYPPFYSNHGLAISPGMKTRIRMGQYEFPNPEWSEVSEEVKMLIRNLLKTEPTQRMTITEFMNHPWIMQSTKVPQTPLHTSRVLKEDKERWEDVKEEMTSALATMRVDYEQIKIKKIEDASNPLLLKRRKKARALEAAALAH
# T1 sequence (P49137 whole entry): as above
SMILES,IC50 [1],IC50 [2],IC50 (human MK2)
"COc1ccc(-c2cc3c(cn2)CCc2c-3[nH]c3c2C(=O)NC2(CC2)C3)cc1 [Example 40, 2-(1-Amino-cyclopropylmethyl)-8-(4-methoxy-phenyl)-4,5-dihydro-1H-pyrrolo[2,3-f]isoquinoline-3-carboxylic acid lactam]",220 nM,,
"O=C1NCC2(CC2)c2[nH]c3c(c21)CCc1cnc(-c2ccc(CN4CCOCC4)c(F)c2)cc1-3 [Example 301, 2-(3-Fluoro-4-morpholin-4-ylmethyl-phenyl)-10-spirocyclopropyl-5,6,8,9,10,11-exahydro-3,8,11-triaza-benzo[a]fluoren-7-one]",256 nM,29 nM,
"N#Cc1ccc(-c2cc3c(cn2)CCc2c-3[nH]c3c2C(=O)NCC32CC2)cn1 [Example 127, 2-(1-Aminomethyl-cyclopropyl)-8-(6-cyano-pyridin-3-yl)-4,5-dihydro-1H-pyrrolo[2,3-f]isoquinoline-3-carboxylic acid lactam]",264 nM,,
"COc1ccc(-c2ncc3c(n2)-c2[nH]c4c(c2CC3)C(=O)NCC42CN(C)C2)cc1 [Example 207, 2-(3-Aminomethyl-1-methyl-azetidin-3-yl)-8-(4-methoxy-phenyl)-4,5-dihydro-1H-1,7,9-triaza-cyclopenta[a]naphthalene-3-carboxylic acid lactam]",130 nM,,
"COc1cncc(-c2cc3c(cn2)CCc2c-3[nH]c3c2C(=O)NC2(CCC2)C3)c1 [Example 99, 2-(1-Amino-cyclobutylmethyl)-8-(5-methoxy-pyridin-3-yl)-4,5-dihydro-1H-pyrrolo[2,3-f]isoquinoline-3-carboxylic acid lactam]",311 nM,72 nM,
"COCCOc1cncc(-c2cc3c(cn2)CCc2c-3[nH]c3c2C(=O)NCC32CC2)c1 [Example 1, 2-(1-Aminomethyl-cyclopropyl)-8-[5-(2-methoxy-ethoxy)-pyridin-3-yl]-4,5-dihydro-1H-pyrrolo[2,3-f]isoquinoline-3-carboxylic acid lactame]",320 nM,,47 nM
"CC(C)Oc1ccc(-c2cc3c(cn2)CCc2c-3[nH]c3c2C(=O)NCC32CN(C)C2)cn1 [Example 185, 2-(3-Aminomethyl-1-methyl-azetidin-3-yl)-8-(6-isopropoxy-pyridin-3-yl)-4,5-dihydro-1H-pyrrolo[2,3-f]isoquinoline-3-carboxylic acid lactam hydrochloride]",134 nM,< 3 nM,
"CN1CC2(CNC(=O)c3c2[nH]c2c3CCc3cnc(-c4ccccc4F)cc3-2)C1 [Example 172, 2-(3-Aminomethyl-1-methyl-azetidin-3-yl)-8-(2-fluoro-phenyl)-4,5-dihydro-1H-pyrrolo[2,3-f]isoquinoline-3-carboxylic acid lactam]",347 nM,,
"O=C1NC2(CC2)C2(CC2)c2[nH]c3c(c21)CCc1cnc(-c2cccc(F)c2)cc1-3 [Example 195, 2-(1′-Amino-bicyclopropyl-1-yl)-8-(3-fluoro-phenyl)-4,5-dihydro-1H-pyrrolo[2,3-f]isoquinoline-3-carboxylic acid lactam]",333 nM,,
"Cc1ccc(-c2cc3c(cn2)CCc2c-3[nH]c3c2C(=O)NC2(CCC2)C3)cn1 [Example 103, 2-(1-Amino-cyclobutylmethyl)-8-(6-methyl-pyridin-3-yl)-4,5-dihydro-1H-pyrrolo[2,3-f]isoquinoline-3-carboxylic acid lactam]",336 nM,57 nM,
"O=C1NCC2(CNC2)c2[nH]c3c(c21)CCc1cnc(-c2cccc(Cl)c2)cc1-3 [Example 187, 2-[3-Aminomethyl-azetidin-3-yl]-8-(3-chloro-phenyl)-4,5-dihydro-1H-pyrrolo[2,3-f]isoquinoline-3-carboxylic acid lactam hydrochloride]",156 nM,< 3 nM,
